Measurements taken from patent publication US20230021483A1, “[…] […] METHOD AND CLASSIFICATION OF PHARMACEUTICAL COMPONENTS BY USING TRANSCRIPTOMES” (National Institutes of Biomedical Innovation, Health and …, priority 2016, published 2023).

Experiments:
[1] = test system: adjuvant-associated biological themes in LV, SP, LN
Procedure, shortened: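 Per-mouse whole-organ transcriptomes; genes with eij/ei(c)>2.0 tested for theme enrichment via TargetMine (GO, KEGG, Reactome, others), Fisher's exact test, Holm-Bonferroni correction. Themes shared by all three mice kept at p<0.05, using the smallest p. Score per adjuvant-associated term = Σ−log(p) of matching themes.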

[2] = test system: LV, SP and LNs; assay: Whole organ transcriptome across organs (adjuvant gene space): gene responses and adjuvant grouping; type: in vivo, C57BL/6 mice

D35: A class CpG ODN (5′-GGTGCATCGATGCAGGGGGG-3′), TLR9 ligand (DNA GGTGCATCGATGCAGGGGGG; chemistry not given here)
tissue damage-associated annotations (cell death, wounding) in LNs ([1]; LN, i.d., fold change >2): did not induce cell death and wounding in LNs | GO annotation: Cytokine-cytokine receptor interaction (Term: cytokine) ([1]; LV, ID): 0 | GO annotation: Cytokine-cytokine receptor interaction|Endocytosis (Term: cytokine) ([1]; LV, ID): 5.2 | GO annotation: I-kappaB kinase/NF-kappaB signaling (Term: NF-kappa B signaling pathway) ([1]; LV, ID): 0 | GO annotation: NF-kappa B signaling pathway (Term: NF-kappa B signaling pathway) ([1]; LV, ID): 5.27 | GO annotation: TNF signaling pathway (Term: TNF signaling pathway) ([1]; LV, ID): 12.1 | GO annotation: activation of immune response (Term: immune response) ([1]; LV, ID): 0 | GO annotation: activation of innate immune response (Term: innate immune response) ([1]; LV, ID): 0 | GO annotation: acute inflammatory response (Term: inflammatory response) ([1]; LV, ID): 0 | GO annotation: adaptive immune response (Term: adaptive immune response) ([1]; LV, ID): 0 | GO annotation: apoptotic process (Term: apoptosis) ([1]; LV, ID): 0 | GO annotation: apoptotic signaling pathway (Term: apoptosis) ([1]; LV, ID): 0 | GO annotation: cell chemotaxis (Term: chemotaxis) ([1]; LV, ID): 4.51 | GO annotation: cell death (Term: cell death) ([1]; LV, ID): 5.7 | GO annotation: cell migration (Term: migration) ([1]; LV, ID): 0 | GO annotation: cellular response to cytokine stimulus (Term: cytokine) ([1]; LV, ID): 3.28 | GO annotation: cellular response to interferon-alpha (Term: IFN alpha) ([1]; LV, ID): 0 | GO annotation: cellular response to stress (Term: stress) ([1]; LV, ID): 0 | GO annotation: chemokine production (Term: chemokine) ([1]; LV, ID): 0 | GO annotation: chemokine-mediated signaling pathway (Term: chemokine) ([1]; LV, ID): 0 | GO annotation: chemotaxis (Term: chemotaxis) ([1]; LV, ID): 0 | GO annotation: cytokine biosynthetic process (Term: cytokine) ([1]; LV, ID): 0 | GO annotation: cytokine metabolic process (Term: cytokine) ([1]; LV, ID): 0 | GO annotation: cytokine production (Term: cytokine) ([1]; LV, ID): 0 | GO annotation: cytokine secretion (Term: cytokine) ([1]; LV, ID): 0 | GO annotation: cytokine-mediated signaling pathway (Term: cytokine) ([1]; LV, ID): 0 | GO annotation: death (Term: cell death) ([1]; LV, ID): 0 | GO annotation: defense response (Term: defense response) ([1]; LV, ID): 5.76 | GO annotation: defense response to Gram-positive bacterium (Term: defense response) ([1]; LV, ID): 0 | GO annotation: defense response to bacterium (Term: defense response) ([1]; LV, ID): 0 | GO annotation: defense response to other organism (Term: defense response) ([1]; LV, ID): 0 | GO annotation: defense response to protozoan (Term: defense response) ([1]; LV, ID): 0 | GO annotation: defense response to virus (Term: defense response) ([1]; LV, ID): 0 | GO annotation: granulocyte chemotaxis (Term: chemotaxis) ([1]; LV, ID): 0 | GO annotation: granulocyte migration (Term: migration) ([1]; LV, ID): 0 | GO annotation: immune response (Term: immune response) ([1]; LV, ID): 0 | GO annotation: immune response-activating signal transduction (Term: immune response) ([1]; LV, ID): 0 | GO annotation: immune response-regulating signaling pathway (Term: immune response) ([1]; LV, ID): 0 | GO annotation: inflammatory response (Term: inflammatory response) ([1]; LV, ID): 0 | GO annotation: innate immune response (Term: innate immune response) ([1]; LV, ID): 0 | GO annotation: innate immune response-activating signal transduction (Term: innate immune response) ([1]; LV, ID): 0 | GO annotation: interferon-alpha production (Term: IFN alpha) ([1]; LV, ID): 0 | GO annotation: intrinsic apoptotic signaling pathway (Term: apoptosis) ([1]; LV, ID): 0 | GO annotation: leukocyte chemotaxis (Term: chemotaxis) ([1]; LV, ID): 0 | GO annotation: leukocyte migration (Term: migration) ([1]; LV, ID): 0 | GO annotation: leukocyte migration involved in inflammatory response (Term: inflammatory response) ([1]; LV, ID): 0 | GO annotation: lymphocyte chemotaxis (Term: chemotaxis) ([1]; LV, ID): 0 | GO annotation: lymphocyte migration (Term: migration) ([1]; LV, ID): 0 | GO annotation: myeloid leukocyte migration (Term: migration) ([1]; LV, ID): 0 | GO annotation: negative regulation of apoptotic process (Term: apoptosis) ([1]; LV, ID): 0 | GO annotation: negative regulation of cell death (Term: cell death) ([1]; LV, ID): 0 | GO annotation: negative regulation of cytokine production (Term: cytokine) ([1]; LV, ID): 0 | GO annotation: negative regulation of defense response (Term: defense response) ([1]; LV, ID): 0 | GO annotation: negative regulation of immune response (Term: immune response) ([1]; LV, ID): 0 | GO annotation: negative regulation of innate immune response (Term: innate immune response) ([1]; LV, ID): 0 | GO annotation: negative regulation of programmed cell death (Term: cell death) ([1]; LV, ID): 0 | GO annotation: neutrophil chemotaxis (Term: chemotaxis) ([1]; LV, ID): 0 | GO annotation: neutrophil migration (Term: migration) ([1]; LV, ID): 0 | GO annotation: positive regulation of I-kappaB kinase/NF-kappaB signaling (Term: NF-kappa B signaling pathway) ([1]; LV, ID): 0 | GO annotation: positive regulation of adaptive immune response (Term: adaptive immune response) ([1]; LV, ID): 0 | GO annotation: positive regulation of apoptotic process (Term: apoptosis) ([1]; LV, ID): 3.18 | GO annotation: positive regulation of cell death (Term: cell death) ([1]; LV, ID): 0 | GO annotation: positive regulation of cell migration (Term: migration) ([1]; LV, ID): 0 | GO annotation: positive regulation of chemokine production (Term: chemokine) ([1]; LV, ID): 0 | GO annotation: positive regulation of chemotaxis (Term: chemotaxis) ([1]; LV, ID): 0 | GO annotation: positive regulation of cytokine biosynthetic process (Term: cytokine) ([1]; LV, ID): 0 | GO annotation: positive regulation of cytokine production (Term: cytokine) ([1]; LV, ID): 0 | GO annotation: positive regulation of defense response (Term: defense response) ([1]; LV, ID): 0 | GO annotation: positive regulation of immune response (Term: immune response) ([1]; LV, ID): 0 | GO annotation: positive regulation of inflammatory response (Term: inflammatory response) ([1]; LV, ID): 0 | GO annotation: positive regulation of innate immune response (Term: innate immune response) ([1]; LV, ID): 0 | GO annotation: positive regulation of interferon-alpha production (Term: IFN alpha) ([1]; LV, ID): 0 | GO annotation: positive regulation of leukocyte chemotaxis (Term: chemotaxis) ([1]; LV, ID): 0 | GO annotation: positive regulation of leukocyte migration (Term: migration) ([1]; LV, ID): 0 | GO annotation: positive regulation of programmed cell death (Term: cell death) ([1]; LV, ID): 3.05 | GO annotation: positive regulation of response to wounding (Term: wounding) ([1]; LV, ID): 0 | GO annotation: positive regulation of tumor necrosis factor superfamily cytokine (Term: cytokine) ([1]; LV, ID): 0 | GO annotation: production of molecular mediator of immune response (Term: immune response) ([1]; LV, ID): 0 | GO annotation: programmed cell death (Term: cell death) ([1]; LV, ID): 0 | GO annotation: regulation of I-kappaB kinase/NF-kappaB signaling (Term: NF-kappa B signaling pathway) ([1]; LV, ID): 0 | GO annotation: regulation of adaptive immune response (Term: adaptive immune response) ([1]; LV, ID): 0 | GO annotation: regulation of apoptotic process (Term: apoptosis) ([1]; LV, ID): 0 | GO annotation: regulation of apoptotic signaling pathway (Term: apoptosis) ([1]; LV, ID): 0 | GO annotation: regulation of cell death (Term: cell death) ([1]; LV, ID): 0 | GO annotation: regulation of cell migration (Term: migration) ([1]; LV, ID): 0 | GO annotation: regulation of chemokine production (Term: chemokine) ([1]; LV, ID): 0 | GO annotation: regulation of chemotaxis (Term: chemotaxis) ([1]; LV, ID): 0 | GO annotation: regulation of cytokine biosynthetic process (Term: cytokine) ([1]; LV, ID): 0 | GO annotation: regulation of cytokine production (Term: cytokine) ([1]; LV, ID): 0 | GO annotation: regulation of defense response (Term: defense response) ([1]; LV, ID): 0 | GO annotation: regulation of defense response to virus (Term: defense response) ([1]; LV, ID): 0 | GO annotation: regulation of defense response to virus by host (Term: defense response) ([1]; LV, ID): 0 | GO annotation: regulation of immune response (Term: immune response) ([1]; LV, ID): 0 | GO annotation: regulation of inflammatory response (Term: inflammatory response) ([1]; LV, ID): 0 | GO annotation: regulation of innate immune response (Term: innate immune response) ([1]; LV, ID): 0 | GO annotation: regulation of interferon-alpha production (Term: IFN alpha) ([1]; LV, ID): 0 | GO annotation: regulation of intrinsic apoptotic signaling pathway (Term: apoptosis) ([1]; LV, ID): 0 | GO annotation: regulation of leukocyte chemotaxis (Term: chemotaxis) ([1]; LV, ID): 0 | GO annotation: regulation of leukocyte migration (Term: migration) ([1]; LV, ID): 0 | GO annotation: regulation of programmed cell death (Term: cell death) ([1]; LV, ID): 0 | GO annotation: regulation of response to stress (Term: stress) ([1]; LV, ID): 0 | GO annotation: regulation of response to wounding (Term: wounding) ([1]; LV, ID): 0 | GO annotation: regulation of tumor necrosis factor superfamily cytokine production (Term: cytokine) ([1]; LV, ID): 0 | GO annotation: response to cytokine (Term: cytokine) ([1]; LV, ID): 8.12 | GO annotation: response to interferon-alpha (Term: IFN alpha) ([1]; LV, ID): 0 | GO annotation: response to stress (Term: stress) ([1]; LV, ID): 9.13 | GO annotation: response to wounding (Term: wounding) ([1]; LV, ID): 0 | GO annotation: taxis (Term: chemotaxis) ([1]; LV, ID): 0 | GO annotation: tumor necrosis factor superfamily cytokine production (Term: cytokine) ([1]; LV, ID): 0 | IFN beta: cellular response to interferon-beta ([1]; LV, ID): 0 | IFN beta: interferon-beta production ([1]; LV, ID): 0 | IFN beta: positive regulation of interferon-beta production ([1]; LV, ID): 0 | IFN beta: regulation of interferon-beta production ([1]; LV, ID): 0 | IFN beta: response to interferon-beta ([1]; LV, ID): 0 | IFN gamma: cellular response to interferon-gamma ([1]; LV, ID): 0 | IFN gamma: interferon-gamma production ([1]; LV, ID): 0 | IFN gamma: regulation of interferon-gamma production ([1]; LV, ID): 0 | IFN gamma: response to interferon-gamma ([1]; LV, ID): 0 | interleukin-6: interleukin-6 production ([1]; LV, ID): 0 | interleukin-6: positive regulation of interleukin-6 production ([1]; LV, ID): 0 | interleukin-6: regulation of interleukin-6 production ([1]; LV, ID): 0 | interleukin-12: interleukin-12 production ([1]; LV, ID): 0 | interleukin-12: positive regulation of interleukin-12 production ([1]; LV, ID): 0 | interleukin-12: regulation of interleukin-12 production ([1]; LV, ID): 0 | GO annotation: adaptive immune response based on somatic recombination of immune receptors built from immunoglobulin superfamily domains (Term: adaptive immune response) ([1]; mouse, in vivo): 0 | GO annotation: regulation of adaptive immune response based on somatic recombination of immune receptors built from immunoglobulin superfamily domains (Term: adaptive immune response) ([1]; mouse, in vivo): 0 | distribution/strength of gene responses between local LNs and systemic organs (LV, SP) ([2]; 6 h after i.d. (local) administration): acted on local LNs but not in the systemic remote organs | adjuvant group (cluster) within the adjuvant gene space ([2]; hierarchical clustering, LV, SP and/or LNs): G5
